In patent US9186390B2, “Methods and uses of TIE2 binding and/or activating agents” (Sunnybrook Health Sciences Center, priority 2010, dated 2015):
Entries after “also recorded” stand apart in the source; their conditions may differ.

What was measured:
Eo/B progenitors = assay: Modulation of eosinophil/basophil progenitors (Eo/B-CFU); assay type: cell-based; conditions: preliminary data
Description: Thus, Eo/B from mice and healthy donors are isolated. Eosinophils from the periphery or bone marrow are enriched by magnetic bead sorting using anti CD125 (IL-5Ra) conjugated to magnetic particles. These cells preparations are stimulated with either recombinant Ang1 or Vasculotide and different cellular parameters are measured, including cellular growth, apoptosis, migration and Tie2-specific cellular signaling.
To examine the effect of Vasculotide on Eo/B progenitors, bone marrow colony assays are performed. Human bone marrow preparations are purchased from Stem Cell Technologies (Vancouver, BC) and murine bone marrow are obtained by flushing femurs of normal mice. Non-adherent mononuclear cells are cultured in MethoCult supplemented with IL-5 to optimize for eosinophil/basophil colony formation (Eo/B-CFU). […] The appearance of Eo/B-CFU is measured.
Eo/Bs and their progenitors are harvested from Vasculotide treated asthmatic animals from the periphery or bone marrow. In order to establish an Eo/B cellular profile treated and non-treated animals are harvested on week 1, 2, 4 and 6 and the number of Eo/Bs in the periphery, bone marrow and progenitors is determined. The number of peripheral and bone marrow eosinophils is determined by flow cytometry analysis using Ly6G, CD11b, IgE and free FITC markers. Eo/B progenitors in the bone marrow are measured by Eo/B-CFU assay.

CFU-G = assay: Methocult colony assay (ex vivo bone marrow proliferation and differentiation); assay type: cell-based, CD1 mice; conditions: 1 ng/ml or 10 ng/ml, Methocult M3434, 7 days
Description: Bone marrow was flushed from the femur bones of two month old CD1 mice and was suspended in Iscove's Modified Dulbecco's Media (Sigma, St. Louis, Mo.) at a concentration of 1×10^5 per ml. Cells were thoroughly suspended in methocellulose M3434 media (Stem Cell Technologies, Vancouver, BC) such that 1×10^4 cells per 35 mm tissue culture dish were dispensed. Prior to dispensing into the tissue culture dishes either vehicle (PBS) or Vasculotide 1 ng/ml or 10 ng/ml was mixed in. Plates were placed in an incubator at 37° C., 5% CO2 for 7 days without replenishment of vehicle or Vasculotide. […] Using an ex vivo model of bone marrow proliferation and differentiation (methocult), the influence of Vasculotide on bone marrow extracted from the femurs of normal CD1 mice was observed. Bone marrow was disaggregated and resuspended in methocult M3434 media plus Vasculotide (Vasc 1 ng/ml or 10 ng/ml) or control (PBS).

[1] = tested on: AT derm mice (pTek-tTA:pTetOS-Tek); assay: Atopic dermatitis (AT derm) transgenic mouse model and wild-type littermates, 30-day Vasculotide treatment; assay type: in vivo, CD1 mice
Source text: Briefly, construction of the driver transgene, pTek-tTA, and the responder transgenes, pTetOS-Tek, pTetos-Ang1, and pTetos-Ang2 have been described previously. All transgenic lines were maintained and genotyped as previously described (Voskas et al. (2005) Am. J. Pathol. 166(3):843-855, Ward et al. (2004) Am. J. Pathol. 165(3):889-899, Bureau et al. (2006) Am. J. Physiol. Heart Circ. Physiol. 291(2):H948-965). Males were housed with a single female for 14 to 20 days and then separated into individual cages. CD1 mice (an outbred mouse line) were maintained in a barrier facility. All adult mice used in these studies were 2 to 6 months old.
Mouse skin tissue was fixed in 4% paraformaldehyde (Sigma, St. Louis, Mo.) for 16 hours at 4 degrees Celsius, and transferred to 70% ethanol. Tissues were subsequently paraffin embedded and sectioned at 4 μM on SuperFrost glass slides. Tissue slides were stained for hematoxylin and eosin using standard techniques. For immunohistochemistry, anti-E-Selectin (rat; Pharmingen, La Jolla, Calif.), anti-VCAM1 (rat; Pharmingen), anti-ICAM1 (Hamster; Pharmingen, La Jolla, Calif.), primary antibodies were detected using biotinylated secondary antibodies as described in the Vectastain Elite ABC kit (Vector Laboratories, Burlingame, Calif.). Slides were processed and counterstained with methyl green using standard techniques. Slides were analyzed and photos were processed using a Leica compound light microscope coupled to a Leica DFC300FX camera (Wetzlar, Germany). Skin tissue was taken (biopsy) at day 0, prior to initiation of treatment and at 30 days. Gross phenotypic examination was conducted and mice were photographed in a standard format using a Digital Canon Eos Rebel.
Blood was collected from all mice on day 0 (prior to treatment) and day 30 (after 30 days of treatment). On day 0, approximately 50 μl was collected via tail vein puncture into a lithium heparin micro tube. Day 30 blood was collected via cardiac puncture into a lithium heparin micro tube. Both blood samples were prepared for storage and subsequent analysis using Phosflow Lyse/Fix Buffer (BD Biosciences, Franklin Lakes, N.J.), according to manufacturers instructions. Cells were stained for IgE versus free FITC and characteristic populations of basophils and eosinophils were identified.
Normal and double transgenic (pTek-tTA:pTetOS-Tek) CD1 mice were injected intra peritoneally with either sterile PBS, pH 7.4 (vehicle) or Vasculotide (40 μg/kg) every three days for the period of 30 days. Mice were observed closely during this period for phenotypic resolution and/or any potential ill effects.
Plasma was collected in lithium/heparin microtubes from all mice following 30 days of treatment with Vasculotide or vehicle. Plasma was diluted 1:8 in sample diluent (BD Biosciences, Franklin Lakes, N.J.). A multiplex analysis of 12 different mouse cytokines was examined according to manufacturer's instructions. Analysis and cytokine/chemokine quantification was performed using the manufacturers FCAP software package (BD Biosciences, Franklin Lakes, N.J.).
Blood was collected from mice as previously described. Separated plasma was diluted 1:4 in calibrator diluent according to manufacturer's specifications (R&D Biosystems, Minneapolis, Minn. USA). All aspects of the assay were conducted according to manufacturer's directions. Quantification of plasma eotaxin concentrations was performed by linear regression analysis from assessment of defined amounts of eotaxin standard.

[2] = AT derm and wild-type mice, 30 days treatment
[3] = AT derm mice, skin and underlying muscle, 40 μg/kg every 3 days for 30 days
[4] = wild-type (or single transgenic) mice, 30 days, p=0.0027

Vasculotide: Modified T7 peptide (CHHHRHSF, SEQ ID NO:2) conjugated to 10 kDa tetrameric polyethylene glycol-maleimide; Tie2 binding peptide mimetic
effect on Eo/B progenitors (Eo/B progenitors): impacts the Eo/B progenitors directly
all other populations of cells (colonies) (CFU-G): statistically indistinguishable from PBS control
total CFU-G numbers (CFU-G; vs PBS): statistically significant, dose-dependent reduction; also recorded: dose dependent, statistically significant reduction
body weight change during 30-day treatment ([1]; 40 μg/kg every 3 days for 30 days, vs PBS): no statistically significant alteration; also recorded: no statistically detectable alteration
plasma eotaxin levels (ELISA) ([1]; AT Derm mice vs PBS treated AT Derm mice, p=0.0208): statistically significant decrease
basophil numbers in peripheral blood (FACS) [1, 2]: marked reduction; also recorded: Decreased numbers
eosinophil numbers in peripheral blood (FACS) [1, 2]: marked reduction; also recorded: Decreased numbers
number of granulocytes in the bone marrow ([1]; AT derm and wild-type mice, treated or untreated): unchanged
gross phenotype: erythema, micro-haemorrhages of the ears, scaly plaque formation on the tail ([1]; AT derm mice (moderate or severe), 40 μg/kg every 3 days for 30 days): complete or almost complete resolution; also recorded: Gross phenotypic improvement
plasma IL-1β (cytometric bead array) ([1]; AT derm mice vs PBS-treated AT derm mice, 30 days, p=0.0492): reduction
erythema after the third dose (9 days) ([1]; AT derm mice, 40 μg/kg every three days): reduction in erythema
epidermal hyperplasia and infiltration of leukocytes (H&E staining of skin) ([1]; AT derm mice, 30 days treatment vs PBS): dramatic reduction; also recorded: marked reduction
E-selectin expression (immunohistochemistry) [1, 3]: very low or absent levels of positive staining; also recorded: dramatic reduction
ICAM1 expression (immunohistochemistry) [1, 3]: very low or absent levels of positive staining; also recorded: dramatic reduction
VCAM1 expression (immunohistochemistry) [1, 3]: very low or absent levels of positive staining; also recorded: dramatic reduction
neutrophils in peripheral blood (FACS) ([1]; control and AT-Derm mice, 30 days treatment): No effects
plasma IL-5 (cytometric bead array) [1, 4]: statistically significant decrease
plasma IL-13 (cytometric bead array) [1, 4]: statistically significant decrease
plasma MIP1b (cytometric bead array) ([1]; wild-type (or single transgenic) mice, 30 days, p=0.003): statistically significant decrease
plasma IL-9 (cytometric bead array) ([1]; wild-type (or single transgenic) mice, 30 days, p=0.0079): statistically significant decrease
plasma MCP1 (cytometric bead array) ([1]; wild-type (or single transgenic) mice, 30 days, p=0.0116): statistically significant decrease
plasma MIG (cytometric bead array) ([1]; wild-type (or single transgenic) mice, 30 days, p=0.0117): statistically significant decrease
plasma TNF-α (cytometric bead array) ([1]; wild-type (or single transgenic) mice, 30 days, p=0.0309): statistically significant decrease
plasma MIP1a (cytometric bead array) ([1]; wild-type (or single transgenic) mice, 30 days, p=0.0473): statistically significant decrease
plasma IL-17 (cytometric bead array) ([1]; wild-type (or single transgenic) mice, 30 days, p=0.0492): statistically significant decrease
plasma IL-12/IL-23 p40 (cytometric bead array) ([1]; wild-type (or single transgenic) mice, 30 days, p=0.0494): statistically significant decrease
overt effects / appearance of single transgenic or wild-type littermates ([1]; wild-type or single transgenic mice, 40 μg/kg every three days): no overt effects; also recorded: indistinguishable from PBS-treated
